Measurements: ChEMBL document CHEMBL1201862, “PubChem BioAssay data set” (2004)
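Growth conditions: 96-well plates. Treatment: test compound, 48 hours, 5 concentrations. Analysis: linear interpolation between bracketing concentrations; unreached endpoints set to highest concentration. Abbreviation: GI50, concentration required for 50% inhibition of growth.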 Active and inactive are the calls of the source. No stated cut-off is given here; in the data, active = GI50 up to about 1.1 µM and inactive = higher.

Tests used:
Experiment in all cases: NCI tumour cell line growth inhibition, 48 h
SNB-19 = tested on: SNB-19
HCT-116 = tested on: HCT-116
RPMI-8226 = tested on: RPMI-8226
A498 = tested on: A498
PC-3 = tested on: PC-3
KM12 = tested on: KM12
SF-539 = tested on: SF-539
UACC-62 = tested on: UACC-62
HOP-62 = tested on: HOP-62
NCI-H522 = tested on: NCI-H522
MDA-MB-231 = tested on: MDA-MB-231
Hs-578T = tested on: Hs-578T
MCF7 = tested on: MCF7
HT-29 = tested on: HT-29
HOP-92 = tested on: HOP-92
Malme-3M = tested on: Malme-3M
IGROV-1 = tested on: IGROV-1
SR = tested on: SR
SF-268 = tested on: SF-268
RXF 393 = tested on: RXF 393
A549 = tested on: A549
U-251 = tested on: U-251
SK-MEL-5 = tested on: SK-MEL-5
MDA-N = tested on: MDA-N
HL-60 = tested on: HL-60
HCC 2998 = tested on: HCC 2998
TK-10 = tested on: TK-10
NCI/ADR-RES = tested on: NCI/ADR-RES
EKVX = tested on: EKVX
SK-OV-3 = tested on: SK-OV-3
SK-MEL-2 = tested on: SK-MEL-2
DU-145 = tested on: DU-145
COLO 205 = tested on: COLO 205
OVCAR-5 = tested on: OVCAR-5
NCI-H226 = tested on: NCI-H226
MOLT-4 = tested on: MOLT-4
OVCAR-4 = tested on: OVCAR-4
CCRF-CEM = tested on: CCRF-CEM
NCI-H23 = tested on: NCI-H23
SN12C = tested on: SN12C
LOX IMVI = tested on: LOX IMVI
UACC-257 = tested on: UACC-257
SK-MEL-28 = tested on: SK-MEL-28
K562 = tested on: K562
NCI-H460 = tested on: NCI-H460
SF-295 = tested on: SF-295
786-0 = tested on: 786-0
BT-549 = tested on: BT-549
HCT-15 = tested on: HCT-15
MDA-MB-435 = tested on: MDA-MB-435
OVCAR-3 = tested on: OVCAR-3
UO-31 = tested on: UO-31
CAKI-1 = tested on: CAKI-1
OVCAR-8 = tested on: OVCAR-8
M14 = tested on: M14
SW-620 = tested on: SW-620
ACHN = tested on: ACHN

Cc1nc(N)nc(S)c1CCC(=O)O
GI50 (SNB-19): > 100 µM (inactive) | GI50 (HCT-116): > 100 µM (inactive) | GI50 (RPMI-8226): > 100 µM (inactive) | GI50 (A498): > 100 µM (inactive) | GI50 (PC-3): > 100 µM (inactive) | GI50 (KM12): > 100 µM (inactive) | GI50 (SF-539): > 100 µM (inactive) | GI50 (UACC-62): > 100 µM (inactive) | GI50 (HOP-62): > 100 µM (inactive) | GI50 (NCI-H522): > 100 µM (inactive) | GI50 (MDA-MB-231): > 100 µM (inactive) | GI50 (Hs-578T): > 100 µM (inactive) | GI50 (MCF7): > 100 µM (inactive) | GI50 (HT-29): > 100 µM (inactive) | GI50 (HOP-92): > 100 µM (inactive) | GI50 (Malme-3M): > 100 µM (inactive) | GI50 (IGROV-1): > 100 µM (inactive) | GI50 (SR): > 100 µM (inactive) | GI50 (SF-268): > 100 µM (inactive) | GI50 (RXF 393): > 100 µM (inactive) | GI50 (A549): > 100 µM (inactive) | GI50 (U-251): > 100 µM (inactive) | GI50 (SK-MEL-5): > 100 µM (inactive) | GI50 (MDA-N): > 100 µM (inactive) | GI50 (HL-60): > 100 µM (inactive) | GI50 (HCC 2998): > 100 µM (inactive) | GI50 (TK-10): > 100 µM (inactive) | GI50 (NCI/ADR-RES): > 100 µM (inactive) | GI50 (EKVX): > 100 µM (inactive) | GI50 (SK-OV-3): > 100 µM (inactive) | GI50 (SK-MEL-2): > 100 µM (inactive) | GI50 (DU-145): > 100 µM (inactive) | GI50 (COLO 205): > 100 µM (inactive) | GI50 (OVCAR-5): > 100 µM (inactive) | GI50 (NCI-H226): > 100 µM (inactive) | GI50 (MOLT-4): > 100 µM (inactive) | GI50 (OVCAR-4): > 100 µM (inactive) | GI50 (CCRF-CEM): > 100 µM (inactive) | GI50 (NCI-H23): > 100 µM (inactive) | GI50 (SN12C): > 100 µM (inactive) | GI50 (LOX IMVI): > 100 µM (inactive) | GI50 (UACC-257): > 100 µM (inactive) | GI50 (SK-MEL-28): > 100 µM (inactive) | GI50 (K562): > 100 µM (inactive) | GI50 (NCI-H460): > 100 µM (inactive) | GI50 (SF-295): > 100 µM (inactive) | GI50 (786-0): > 100 µM (inactive) | GI50 (BT-549): > 100 µM (inactive) | GI50 (HCT-15): > 100 µM | GI50 (MDA-MB-435): > 100 µM (inactive) | GI50 (OVCAR-3): > 100 µM (inactive) | GI50 (UO-31): > 100 µM (inactive) | GI50 (CAKI-1): > 100 µM (inactive) | GI50 (OVCAR-8): > 100 µM (inactive) | GI50 (M14): > 100 µM (inactive) | GI50 (SW-620): > 100 µM (inactive) | GI50 (ACHN): > 100 µM (inactive)

CCC(=O)O[C@H]1CC[C@H]2[C@@H]3CCC4=CC(=O)C=C[C@]4(O)[C@H]3CC[C@]12C
GI50 (SNB-19): 28.4 µM (inactive) | GI50 (HCT-116): 21.9 µM (inactive) | GI50 (RPMI-8226): 8.55 µM (inactive) | GI50 (A498): > 100 µM (inactive) | GI50 (PC-3): 23.8 µM (inactive) | GI50 (KM12): 18.5 µM (inactive) | GI50 (SF-539): 29.6 µM (inactive) | GI50 (UACC-62): 15.4 µM (inactive) | GI50 (HOP-62): 29.4 µM (inactive) | GI50 (NCI-H522): 16.7 µM (inactive) | GI50 (MDA-MB-231): 22.7 µM (inactive) | GI50 (Hs-578T): 39.5 µM (inactive) | GI50 (MCF7): 23.9 µM (inactive) | GI50 (HT-29): 19.1 µM (inactive) | GI50 (HOP-92): 31.2 µM (inactive) | GI50 (Malme-3M): 48 µM (inactive) | GI50 (IGROV-1): 22.4 µM (inactive) | GI50 (SR): 2.67 µM (inactive) | GI50 (SF-268): 31 µM (inactive) | GI50 (RXF 393): 24.5 µM (inactive) | GI50 (A549): 16.1 µM (inactive) | GI50 (U-251): 20.5 µM (inactive) | GI50 (SK-MEL-5): 5.22 µM (inactive) | GI50 (MDA-N): 2.95 µM (inactive) | GI50 (HL-60): 11.9 µM (inactive) | GI50 (TK-10): 57.4 µM (inactive) | GI50 (NCI/ADR-RES): 37 µM (inactive) | GI50 (EKVX): 25.9 µM (inactive) | GI50 (SK-OV-3): 82.6 µM (inactive) | GI50 (SK-MEL-2): 15.9 µM (inactive) | GI50 (DU-145): 22.8 µM (inactive) | GI50 (COLO 205): 37.8 µM (inactive) | GI50 (OVCAR-5): 87.5 µM (inactive) | GI50 (NCI-H226): > 100 µM (inactive) | GI50 (MOLT-4): 8.87 µM (inactive) | GI50 (OVCAR-4): 28.3 µM (inactive) | GI50 (CCRF-CEM): 4.09 µM (inactive) | GI50 (NCI-H23): 22 µM (inactive) | GI50 (SN12C): 41.9 µM (inactive) | GI50 (LOX IMVI): 16.7 µM (inactive) | GI50 (UACC-257): 3.72 µM (inactive) | GI50 (SK-MEL-28): 67.6 µM (inactive) | GI50 (K562): 3.39 µM (inactive) | GI50 (NCI-H460): 16.3 µM (inactive) | GI50 (SF-295): 26.1 µM (inactive) | GI50 (786-0): 33.7 µM (inactive) | GI50 (BT-549): 20.5 µM (inactive) | GI50 (HCT-15): 15 µM | GI50 (MDA-MB-435): 3.11 µM (inactive) | GI50 (OVCAR-3): 19.8 µM (inactive) | GI50 (UO-31): 64.1 µM (inactive) | GI50 (CAKI-1): 24.3 µM (inactive) | GI50 (OVCAR-8): 23 µM (inactive) | GI50 (M14): 22.5 µM (inactive) | GI50 (SW-620): 17.9 µM (inactive) | GI50 (ACHN): 55.7 µM (inactive)
